According to patent publication US20100035793A1, “Modulators” (priority 2005, published 2010):
Non-standard residues stand in square brackets, D forms with d. No end group written: not given here. pY = N[C@@H](Cc1ccc(OP(=O)(O)O)cc1)C(=O)O

Key:
[1] = biological target: T1, Stat3 (Homo sapiens, UniProt P40763); conditions: cited from earlier work
[2] = biological target: JAK2 (Homo sapiens, UniProt O60674); conditions: cited from earlier work
[3] = test system: breast carcinoma cells; conditions: cited from earlier work
[4] = biological target: T1, Stat3; conditions: cited from earlier work; remark: listed apart in the source
[5] = biological target: T1, Stat3; conditions: cited from earlier work; for levels of DNA binding activities of STAT 3: peptide present in nuclear extracts
[6] = test system: STAT 5; conditions: peptide present in nuclear extracts; cited from earlier work
[7] = test system: collagen; assay: Western blot of collagen production in KF48 keloid fibroblasts; format: cell-based, human; conditions: KF48 infected with retroviral Stat3 siRNAs, FIG. 5A right panel
Description: (§1) These vectors containing Stat3 siRNA targets and empty vector were transfected into 293T-based Phoenix-Ampho packaging cell line for 7-9 h, and the amphotropic retroviruses were harvested 48 h later, pelleted to remove nonadherent cells and cellular debris, and filtered through a […] cellulose acetate membrane. The keloid fibroblasts were infected overnight in the presence of 4 μg/ml polybrene, and replaced with fresh 10% FBS/DMEM the following day. Cells were assayed for Western blot 48 h after infection, or for XTT cell proliferation, or for migration assay which was performed by replating the cells into 8 μM Transwell membrane and fixed 24 h later as described above.
Inhibition of Stat3 was also evaluated by incubating KF48 for 30 min with various doses of Cucurbitacin I, an inhibitor of Jak2/Stat3 activation (32), or with DMSO alone as a control, followed by further incubation in normal growth media for 48 h. […] Cucurbitacin I was acquired from Galchimia (A Corufia, Spain).
(§2) Western blot. Cells were either harvested in radioimmune precipitation assay (RIPA) buffer (150 mM NaCl, 50 mM Tris-HCl, pH 7.2, 1% deoxycholic acid, 1% Triton X-100, 0.25 mM EDTA, pH 8.0) containing protease inhibitor cocktail (Roche Diagnostics Corporation, Indianapolis, Ind., USA), or lysis buffer containing 150 mM NaCl, 10 mM Tris-HCl, pH 7.4, 0.5% Triton-X-100, 0.5% NP-40, 1 mM EDTA, 0.2 mM sodium vanadate, supplemented with protease inhibitor tablet. Total cell lysates were collected after centrifugation for 10 min at 4° C., and resolved in 7.5% or 10% polyacrylamide gel electrophoresis, and transferred to PVDF membranes (Bio-Rad Laboratories, Hercules, Calif., USA). The membranes were blotted with anti-phosphoTyr705 Stat3 antibody (1:1000 dilution; Cell Signaling, Beverly, Mass., USA) overnight at 4° C. overnight in PBS containing 1% BSA and 0.1% Tween 20, washed with PBS containing 0.2% Tween 20, and incubated with secondary anti-rabbit IgG antibody (1:2000 dilution; Sigma, Saint Louis, Mo., USA) for 1 h at room temperature, washed with PBS containing 0.2% Tween 20, followed by enhanced chemiluminescence (Amersham Biosciences, Buckinghamshire, UK) or Lumi-Light (Roche Diagnostics Corporation, Indianapolis, USA), and autoradiography. […]
Methods of assessing polypeptides regulated by STAT Collagen may be regulated by STAT 3 activation. monoclonal anti-human collagen I, II, III Was purchased from MONOSAN (Uden, Netherlands). […] These were detected via western blot as described above.

[8] = test system: Stat3; assay: Western blot of Stat3 expression in packaging cells transfected with Stat3 siRNA vectors; set-up: species or system human; conditions: 293T-based amphotropic packaging cell line, FIG. 5A left panel
Source text: Retroviral Stat3 siRNA. Four different targets designed against STAT 3 were selected and cloned into BglII and XhoI into pSUPER.retro.puro from OligoEngine, and sequenced (STAT 3 Genbank Accession number NM_139276). The four targets are named STAT 3 siRNA 1 (nt. 461-480) SEQ ID 1, STAT 3 siRNA 2 (nt. 1264-1283) SEQ ID 2, STAT 3 siRNA 3 (nt. 364-383) GATTGGGCATATGCGGCCA, and STAT 3 siRNA 4 (nt. 1662-1681) SEQ ID 3. The corresponding primers with a 9-nt short hairpin in the middle (bold) are
as §1
as §2, with “autoradiography. The membranes were stripped with Restore Western Blotting Stripping Buffer (Pierce, Rockford, Ill., USA) according to manufacturer's instructions and reblotted with anti-phosphoSer727 Stat3 (1:1000 dilution; Cell Signaling, Beverly, Mass., USA) and secondary anti-mouse IgG antibody (1:2000 dilution; Sigma, Saint Louis, Mo., USA).” for “autoradiography.”

[9] = test system: Stat3; assay: Western blot of Stat3 expression in KF48 infected with retroviral Stat3 siRNAs; format: cell-based, human; conditions: KF48 infected with retrovirus expressing Stat3 siRNAs
Description: as §1
Western blot. Cells were either harvested in radioimmune precipitation assay (RIPA) buffer (150 mM NaCl, 50 mM Tris-HCl, pH 7.2, 1% deoxycholic acid, 1% Triton X-100, 0.25 mM EDTA, pH 8.0) containing protease inhibitor cocktail (Roche Diagnostics Corporation, Indianapolis, Ind., USA), or lysis buffer containing 150 mM NaCl, 10 mM Tris-HCl, pH 7.4, 0.5% Triton-X-100, 0.5% NP-40, 1 mM EDTA, 0.2 mM sodium vanadate, supplemented with protease inhibitor tablet. Total cell lysates were collected after centrifugation for 10 min at 4° C., and resolved in 7.5% or 10% polyacrylamide gel electrophoresis, and transferred to PVDF membranes (Bio-Rad Laboratories, Hercules, Calif., USA). The membranes were blotted with anti-phosphoTyr705 Stat3 antibody (1:1000 dilution; Cell Signaling, Beverly, Mass., USA) overnight at 4° C. overnight in PBS containing 1% BSA and 0.1% Tween 20, washed with PBS containing 0.2% Tween 20, and incubated with secondary anti-rabbit IgG antibody (1:2000 dilution; Sigma, Saint Louis, Mo., USA) for 1 h at room temperature, washed with PBS containing 0.2% Tween 20, followed by enhanced chemiluminescence (Amersham Biosciences, Buckinghamshire, UK) or Lumi-Light (Roche Diagnostics Corporation, Indianapolis, USA), and autoradiography. The membranes were stripped with Restore Western Blotting Stripping Buffer (Pierce, Rockford, Ill., USA) according to manufacturer's instructions and reblotted with anti-phosphoSer727 Stat3 (1:1000 dilution; Cell Signaling, Beverly, Mass., USA) and secondary anti-mouse IgG antibody (1:2000 dilution; Sigma, Saint Louis, Mo., USA). The stripping and reblotting procedure was repeated with monoclonal anti-Stat3 (1:1000 dilution; BD Transduction Laboratories), polyclonal anti-actin (1:1000 dilution; Sigma) and monoclonal anti-collagen antibody (1:1000 dilution; MONOSAN).

[10] = test system: KF48 keloid fibroblasts; assay: Transwell migration assay; format: cell-based, human; conditions: KF48 infected with Stat3 siRNA retrovirus, vs vector
Description: as §1
Migration assay was also performed using the Transwell 8.0 μM pore size polycarbonate membrane (Corning Inc.). 1×10^4 cells/well were seeded at the top of the insert in 0.2 ml serum-free DMEM, with 0.5 ml 10% FBS/DMEM in the bottom chamber as chemoattractant. 24 h later, cells were washed once in cold PBS, before fixing with 4% paraformaldehyde in PBS for 15 min at room temperature. Cells were permeabilized with 0.1% Triton X-100 in PBS for 3 min at room temperature, and stained with haematoxylin for 10 min at room temperature, followed by destain with water thrice. Cells from the top of the inserts were removed by cotton swabs, and inserts were left to dry. The inserts were mounted onto slides and three non-overlapping fields of cells migrated to the bottom of the inserts were captured using Leica DM4000 B microscope.

[11] = test system: KF48 keloid fibroblasts; assay: Scratch-wound migration assay; format: cell-based, human; conditions: KF48 infected with Stat3 siRNA retrovirus, 15 h after wounding, vs vector
Description: Cell migration in keloidflbroblasts is inhibited by Stat3 siRNA and Cucurbitacin I. To examine the role of Stat3 in cell migration of skin fibroblasts, KF48 cells were infected with retrovirus expressing Stat3 siRNAs and scratch assays were performed as previously described. […] Three non-overlapping fields were acquired, and graphically illustrated as mean±SD in FIG. 8B. Transmembrane cell migration assays were also performed in triplicates as described earlier, and quantified as mean±SD (FIG. 8C). […] The right panels in FIG. 8B and 8C depict immunoblots of Stat3 and actin to show the efficiencies of inhibition by the Stat3 siRNAs.
The role of Stat3 in cell migration was also examined using Cucurbitacin I in the scratch assay. KF48 cells were first incubated with 10 μg/ml mitomycin C for 2 h, before treating for 30 min with DMSO or 1 μM Cucurbitacin I. The scratch-wound was performed, followed by further incubation in normal growth media. Pictures were taken at 0 h, 22 h and 48 h after wounding.
Migration assay. For migration assay using the scratch method, cells were grown to confluence and incubated with 10 μg/ml mitomycin C for 2 h, before a scratch wound was introduced using a yellow pipette tip. Cells were further incubated in normal growth media and pictures were taken at 0 h, 14 h, 15 h, 22 h, or 48 h after wounding. Three non-overlapping fields were captured by Axiovert 135 microscope from Zeiss and cells migrated into the wound site were counted and presented as mean±SD.

[12] = test system: KF48 keloid fibroblasts; assay: XTT proliferation assay; format: cell-based, human
Source text: Inhibition of Stat3 decreases cell proliferation. Enhanced fibroblast proliferation is a characteristic of keloid tissue. In agreement with this, keloid fibroblasts grown in normal culture conditions proliferated faster than normal fibroblasts, as observed in KF48 and KF107 compared to NF2 and NF4 (FIG. 6A). To investigate whether Stat3 is involved in the enhanced keloid fibroblast proliferation, KF48 was infected with retrovirus expressing Stat3 siRNAs, and cell proliferation was examined. […] XTT proliferation assay. Cells seeded at 3,000 cells/well in 96-well plates and grown in normal growth conditions, or infected with retroviral Stat3 siRNAs, were assayed for proliferation using the XrT proliferation kit (Roche) according to the manufacturer's instructions. The readings were taken at 450 nm and referenced against 690 nm, 2 h after the addition of the XrT reagent. Each sample was performed at quadruplicates in two to three independent experiments. Data are presented as mean±SD
Cell proliferation was also investigated by treating KF48 cells with various doses of Cucurbitacin I or with DMSO control, before incubating in normal growth media and examined daily over 4 days. Cucurbitacin I concentration as low as I μM was able to inhibit cell proliferation of KF48 compared to DMSO and untreated control (0 μM), whereas Cucurbitacin I exposure at 5 μM and above seemed to cause cell death (FIG. 6C).

Chain of JAK2 (O60674 whole entry, species assumed): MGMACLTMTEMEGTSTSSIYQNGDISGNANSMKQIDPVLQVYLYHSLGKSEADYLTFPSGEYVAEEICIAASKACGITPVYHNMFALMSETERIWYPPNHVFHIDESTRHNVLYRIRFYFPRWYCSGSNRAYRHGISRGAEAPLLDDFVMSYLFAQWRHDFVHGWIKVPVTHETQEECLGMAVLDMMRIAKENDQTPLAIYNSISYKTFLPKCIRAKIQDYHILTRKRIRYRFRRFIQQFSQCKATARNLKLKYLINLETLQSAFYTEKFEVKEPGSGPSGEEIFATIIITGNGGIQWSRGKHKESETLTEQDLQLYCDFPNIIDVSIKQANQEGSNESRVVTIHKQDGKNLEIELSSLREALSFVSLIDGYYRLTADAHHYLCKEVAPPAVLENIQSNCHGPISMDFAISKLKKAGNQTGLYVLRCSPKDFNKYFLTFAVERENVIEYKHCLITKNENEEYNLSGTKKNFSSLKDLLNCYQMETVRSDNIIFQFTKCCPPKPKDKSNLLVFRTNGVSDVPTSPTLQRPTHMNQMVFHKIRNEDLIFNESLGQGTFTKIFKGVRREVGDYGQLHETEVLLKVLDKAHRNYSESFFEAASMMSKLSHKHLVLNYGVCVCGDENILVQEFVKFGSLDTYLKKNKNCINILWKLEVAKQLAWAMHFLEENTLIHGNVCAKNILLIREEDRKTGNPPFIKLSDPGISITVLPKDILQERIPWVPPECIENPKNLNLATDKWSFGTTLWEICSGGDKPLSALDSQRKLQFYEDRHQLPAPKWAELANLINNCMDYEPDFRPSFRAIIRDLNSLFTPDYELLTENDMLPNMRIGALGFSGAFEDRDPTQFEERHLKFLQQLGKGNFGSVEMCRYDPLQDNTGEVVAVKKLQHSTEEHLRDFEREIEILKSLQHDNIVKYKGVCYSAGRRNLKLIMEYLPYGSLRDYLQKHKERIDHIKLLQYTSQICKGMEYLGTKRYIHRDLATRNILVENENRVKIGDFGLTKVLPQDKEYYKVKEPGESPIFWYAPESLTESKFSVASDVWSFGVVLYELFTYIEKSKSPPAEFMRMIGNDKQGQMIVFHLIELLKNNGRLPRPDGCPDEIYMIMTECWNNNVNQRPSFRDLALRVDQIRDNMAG
T1 sequence (P40763 whole entry, species assumed): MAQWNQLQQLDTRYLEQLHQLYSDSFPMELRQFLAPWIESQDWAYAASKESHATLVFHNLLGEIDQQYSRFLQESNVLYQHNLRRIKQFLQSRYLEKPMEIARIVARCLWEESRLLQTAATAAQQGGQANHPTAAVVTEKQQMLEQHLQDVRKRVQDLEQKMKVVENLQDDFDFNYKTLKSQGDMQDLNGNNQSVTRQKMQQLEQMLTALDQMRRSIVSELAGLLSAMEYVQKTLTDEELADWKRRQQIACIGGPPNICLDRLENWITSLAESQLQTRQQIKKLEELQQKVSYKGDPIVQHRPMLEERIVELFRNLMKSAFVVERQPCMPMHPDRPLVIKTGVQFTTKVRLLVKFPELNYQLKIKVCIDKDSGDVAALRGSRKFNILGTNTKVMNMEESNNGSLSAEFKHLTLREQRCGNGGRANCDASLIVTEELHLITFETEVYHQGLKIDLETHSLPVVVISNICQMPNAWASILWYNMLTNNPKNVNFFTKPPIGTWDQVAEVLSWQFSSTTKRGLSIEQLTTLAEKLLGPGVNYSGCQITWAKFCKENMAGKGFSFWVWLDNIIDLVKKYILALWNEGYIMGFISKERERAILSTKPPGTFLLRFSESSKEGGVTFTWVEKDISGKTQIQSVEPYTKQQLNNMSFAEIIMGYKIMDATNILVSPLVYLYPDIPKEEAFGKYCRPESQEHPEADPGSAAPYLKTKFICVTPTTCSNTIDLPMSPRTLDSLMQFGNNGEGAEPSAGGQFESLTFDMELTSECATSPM

Compound | inhibition of activation of STAT 3 [1] | inhibition of activation of JAK2 [2] | inhibitory effect on Stat3 expression [8] | inhibition of Stat3 expression [9] | cell migration, Transwell [10] | rate of cell migration, scratch assay [11] | further results
CC(=O)OC(C)(C)/C=C/C(=O)[C@](C)(O)[C@H]1[C@H](O)C[C@@]2(C)[C@@H]3CC=C4[C@@H](C[C@H](O)C(=O)C4(C)C)[C@]3(CO)C(=O)C[C@]12C [Cucurbitacin A] | not | inhibits | – | – | – | – | –
CC(=O)OC(C)(C)/C=C/C(=O)[C@](C)(O)[C@H]1[C@H](O)C[C@@]2(C)[C@@H]3CC=C4[C@H](C[C@H](O)C(=O)C4(C)C)[C@]3(C)C(=O)C[C@]12C [Cucurbitacin B] | inhibit | inhibit | – | – | – | – | –
CC(=O)OC(C)(C)/C=C/C(=O)[C@](C)(O)[C@H]1[C@H](O)C[C@@]2(C)[C@@H]3CC=C4[C@@H](C=C(O)C(=O)C4(C)C)[C@]3(C)C(=O)C[C@]12C [Cucurbitacin E] | inhibit | inhibit | – | – | – | – | –
C[C@@H]1CC(=O)c2c(ccc3c2C(=O)c2cccc(O)c2C3=O)C1 [STA-21] | – | – | – | – | – | – | effect on cells in which constitutive Stat3 signaling is absent [3]: minimal effect; survival of breast carcinoma cells with constitutive Stat3 signaling [3]: reduces the survival; Stat3-dependent luciferase activity [4]: inhibits; Stat3 DNA binding activity [4]: inhibits; Stat3 dimerization [4]: inhibits
Cucurbitacin Q | inhibits | not | – | – | – | – | –
PY*L: tripeptide derivative of PY*LKTK, Y* represents phosphotyrosine (Pro-[pY]-Leu; UniProt P40763 704-706, looked up, fragment) | – | – | – | – | – | – | STAT 3 biochemical activity and biological function [5]: inhibit
PY*LKTK: Stat3 SH2 domain-binding phosphopeptide, Y* represents phosphotyrosine (P[pY]LKTK; UniProt P40763 704-709, looked up, fragment) | – | – | – | – | – | – | levels of DNA binding activities of STAT 5 [6]: no effect; STAT 3 biochemical activity and biological function [5]: inhibit; levels of DNA binding activities of STAT 3 [5]: significant reduction
PYLKTK: non-phosphorylated control peptide of PY*LKTK (UniProt P40763 704-709, looked up, fragment) | – | – | – | – | – | – | levels of DNA binding activities of STAT 3 [5]: not
Stat3 siRNA 1: siRNA target nt. 461-480 of STAT 3 (NM—139276), AGTCGAATGTTCTCTATCA, hairpin primers SEQ ID 4 and 5, retroviral vector | – | – | inhibitory effect | inhibit Stat3 expression | hinder the cell migration | impede the rate of cell migration | inhibition of collagen production [7]: inhibition of collagen production
Stat3 siRNA 2: siRNA target nt. 1264-1283 of STAT 3, GGCGTCCAGTTCACTACTA, hairpin primers SEQ ID 6 and 7, retroviral vector | – | – | inhibitory effect | inhibit Stat3 expression | hinder the cell migration | impede the rate of cell migration | inhibition of collagen production [7]: inhibition of collagen production
Stat3 siRNA 3: siRNA target nt. 364-383 of STAT 3, GATTGGGCATATGCGGCCA, retroviral vector; does not inhibit Stat3 | – | – | not | does not inhibit Stat3 | did not | did not | –
Stat3 siRNA 4: siRNA target nt. 1662-1681 of STAT 3, GCGTCCATCCTGTGGTACA, hairpin primers SEQ ID 8 and 9, retroviral vector | – | – | inhibitory effect | inhibit Stat3 expression | hinder the cell migration | impede the rate of cell migration | inhibition of collagen production [7]: inhibition of collagen production; relative effectiveness among the siRNAs tested ([12]; keloid fibroblast collagen production, proliferation and migration): most effective; cell proliferation of KF48 ([12]; retroviral Stat3 siRNA, vs noninfected, vector and Stat3 siRNA 3, FIG. 6B): decreased cell proliferation
